US20240368150A1 (Hoffmann-La Roche Inc., priority 2021, published 2024)
Read-outs that look alike come from different tables or passages of the source.

Legend:
primary human T-cells [1] = assay: Proliferation assay after 5 days (CellTiter-Glo, CD3 stimulation; PBS counter screen); assay type: cell-based; details: CD3 stimulation; for Emax: read-out: Emax proliferation (% activation); for EC50: primary human T-cells, CellTiter-Glo after 5 days, EC50 of fitted sigmoidal curve, read-out: Tcell Proliferation CD3 EC50
In short: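 Compounds were added to medium-only plates, and proliferation was read 5 days later as luminescence from CellTiter-Glo 2.0, whose ATP signal is proportional to cell number. Plates and reagent were equilibrated to room temperature for 45 min before an equal volume of reagent was added, with 15 min rocking.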

primary human T-cells [2] = test system: primary human T-cells
[3] = Homo sapiens, T-cell, 120 h, 5 days, normalized to reference compound A1 as stimulator control = 100%, DMSO neutral control

Row | SMILES | Emax (primary human T-cells [1]; [3]) [%] | EC50 (primary human T-cells [1]; Homo sapiens, T-cell, 120 h) [µM] | EC50 (primary human T-cells [2]) [µM] | Emax proliferation (% activation) (primary human T-cells [1]; 5 days, normalized to reference compound A1 as stimulator control = 100%, DMSO neutral control) | EC50 (primary human T-cells [1]) [µM]
1 | CC(C)(C)c1nnc(-c2cc3c(cc2F)S(=O)(=O)C[C@H](N)C(=O)N3Cc2ccc(OCCCCCCCCCCCN)cc2)o1 [Example 257, (3R)-3-amino-5-[[4-(11-aminoundecoxy)phenyl]methyl]-7-(5-tert-butyl-1,3,4-oxadiazol-2-yl)-8-fluoro-1,1-dioxo-2,3-dihydro-1λ^6,5-benzothiazepin-4-one] | 142 | < 0.162 | > 20 |  | 
2 | CC(=O)N[C@H]1CS(=O)(=O)c2cc(F)c(-c3nnc(C(C)(C)C)o3)cc2N(Cc2ccc(Cl)cc2)C1=O [Example 258, N-[(3R)-7-(5-tert-butyl-1,3,4-oxadiazol-2-yl)-5-[(4-chlorophenyl)methyl]-8-fluoro-1,1,4-trioxo-2,3-dihydro-1λ^6,5-benzothiazepin-3-yl]acetamide] | 124 | 0.586 | 10.8 |  | 
3 | CCC(=O)N[C@H]1CS(=O)(=O)c2cc(F)c(-c3nnc(C(C)(C)C)o3)cc2N(Cc2ccc(Cl)cc2)C1=O [Example 259, N-[(3R)-7-(5-tert-butyl-1,3,4-oxadiazol-2-yl)-5-[(4-chlorophenyl)methyl]-8-fluoro-1,1,4-trioxo-2,3-dihydro-1λ^6,5-benzothiazepin-3-yl]propanamide] | 159 | 0.345 | 2.1 |  | 
4 | CC[C@H](O)C(=O)N[C@H]1CS(=O)(=O)c2cc(F)c(-c3nnc(C(C)(C)C)o3)cc2N(Cc2ccc(Cl)cc2)C1=O [Example 260, (2S)-N-[(3R)-7-(5-tert-butyl-1,3,4-oxadiazol-2-yl)-5-[(4-chlorophenyl)methyl]-8-fluoro-1,1,4-trioxo-2,3-dihydro-1λ^6,5-benzothiazepin-3-yl]-2-hydroxy-butanamide] | 82 | 1.82 | > 20 |  | 
5 | CCCC(=O)N[C@H]1CS(=O)(=O)c2cc(F)c(-c3nnc(C(C)(C)C)o3)cc2N(Cc2ccc(Cl)cc2)C1=O [Example 261, N-[(3R)-7-(5-tert-butyl-1,3,4-oxadiazol-2-yl)-5-[(4-chlorophenyl)methyl]-8-fluoro-1,1,4-trioxo-2,3-dihydro-1λ^6,5-benzothiazepin-3-yl]butanamide] | 115 | 0.428 | 2.69 |  | 
6 | CC[C@H](NC)C(=O)N[C@H]1CS(=O)(=O)c2cc(F)c(-c3nnc(C(C)(C)C)o3)cc2N(Cc2ccc(Cl)cc2)C1=O [Example 263, (2S)-N-[(3R)-7-(5-tert-butyl-1,3,4-oxadiazol-2-yl)-5-[(4-chlorophenyl)methyl]-8-fluoro-1,1,4-trioxo-2,3-dihydro-1λ^6,5-benzothiazepin-3-yl]-2-(methylamino)butanamide] |  |  | 1.4 | 185 | < 0.162
7 | CC(C)(C)c1nnc(-c2cc3c(cc2F)S(=O)(=O)C[C@H](NC(=O)CCN)C(=O)N3Cc2ccc(Cl)cc2)o1 [Example 264, 3-amino-N-[(3R)-7-(5-tert-butyl-1,3,4-oxadiazol-2-yl)-5-[(4-chlorophenyl)methyl]-8-fluoro-1,1,4-trioxo-2,3-dihydro-1λ^6,5-benzothiazepin-3-yl]propanamide] | 106 | 2.7 | 8.1 |  | 
8 | CNCC(=O)N[C@H]1CS(=O)(=O)c2cc(F)c(-c3nnc(C(C)(C)C)o3)cc2N(Cc2ccc(Cl)cc2)C1=O [Example 265, N-[(3R)-7-(5-tert-butyl-1,3,4-oxadiazol-2-yl)-5-[(4-chlorophenyl)methyl]-8-fluoro-1,1,4-trioxo-2,3-dihydro-1λ^6,5-benzothiazepin-3-yl]-2-(methylamino)acetamide] | 143 | 0.884 | > 20 |  | 
9 | CC(C)(C)c1nnc(-c2cc3c(cc2F)S(=O)(=O)C[C@H](NC(=O)CCCN)C(=O)N3Cc2ccc(Cl)cc2)o1 [Example 267, 4-amino-N-[(3R)-7-(5-tert-butyl-1,3,4-oxadiazol-2-yl)-5-[(4-chlorophenyl)methyl]-8-fluoro-1,1,4-trioxo-2,3-dihydro-1λ^6,5-benzothiazepin-3-yl]butanamide] | 74 | 3.07 | 5.44 |  | 
10 | CN[C@@H](C)C(=O)N[C@H]1CS(=O)(=O)c2cc(F)c(-c3nnc(C(C)(C)C)o3)cc2N(Cc2ccc(Cl)cc2)C1=O [Example 268, (2S)—N-[(3R)-7-(5-tert-butyl-1,3,4-oxadiazol-2-yl)-5-[(4-chlorophenyl)methyl]-8-fluoro-1,1,4-trioxo-2,3-dihydro-1λ^6,5-benzothiazepin-3-yl]-2-(methylamino)propanamide] | 95 | 0.249 | 7.83 |  | 
11 | CN[C@@H](CO)C(=O)N[C@H]1CS(=O)(=O)c2cc(F)c(-c3nnc(C(C)(C)C)o3)cc2N(Cc2ccc(Cl)cc2)C1=O [Example 269, (2S)-3-hydroxy-2-(methylamino)-N-[(3R)-7-(5-tert-butyl-1,3,4-oxadiazol-2-yl)-5-[(4-chlorophenyl)methyl]-8-fluoro-1,1,4-trioxo-2,3-dihydro-1λ^6,5-benzothiazepin-3-yl]propanamide] | 67 | 5.84 | > 10 |  | 
12 | CC(C)(C)c1nnc(-c2cc3c(cc2Br)S(=O)(=O)C[C@H](N)C(=O)N3Cc2ccc(Cl)cc2)o1 [Example 271, (3R)-3-amino-8-bromo-7-(5-tert-butyl-1,3,4-oxadiazol-2-yl)-5-[(4-chlorophenyl)methyl]-1,1-dioxo-2,3-dihydro-1λ^6,5-benzothiazepin-4-one] | 91 | 3.19 | 4.81 |  | 
13 | CC(C)(C)c1nnc(-c2cc3c(cc2O)S(=O)(=O)C[C@H](N)C(=O)N3Cc2ccc(Cl)cc2)o1 [Example 273, (3R)-3-amino-7-(5-tert-butyl-1,3,4-oxadiazol-2-yl)-5-[(4-chlorophenyl)methyl]-8-hydroxy-1,1-dioxo-2,3-dihydro-1λ^6,5-benzothiazepin-4-one] | 61 | 3.19 | 7.21 |  | 
14 | CN(C)c1cc2c(cc1-c1nnc(C(C)(C)C)o1)N(Cc1ccc(Cl)cc1)C(=O)[C@@H](N)CS2(=O)=O [Example 274, (3R)-3-amino-7-(5-tert-butyl-1,3,4-oxadiazol-2-yl)-5-[(4-chlorophenyl)methyl]-8-(dimethylamino)-1,1-dioxo-2,3-dihydro-1λ^6,5-benzothiazepin-4-one] | 10 | > 20 | > 20 |  | 
15 | CC(C)(C)c1nnc(-c2cc3c(cc2N)S(=O)(=O)C[C@H](N)C(=O)N3Cc2ccc(Cl)cc2)o1 [Example 275, (3R)-3,8-diamino-7-(5-tert-butyl-1,3,4-oxadiazol-2-yl)-5-[(4-chlorophenyl)methyl]-1,1-dioxo-2,3-dihydro-1λ^6,5-benzothiazepin-4-one] | 108 | 5.49 | 9.15 |  | 
16 | Cc1cc2c(cc1-c1nnc(C(C)(C)C#N)o1)N(Cc1ccc(Cl)cc1)C(=O)[C@@H](N)CS2(=O)=O [Example 276, 2-[5-[(3R)-3-amino-5-[(4-chlorophenyl)methyl]-8-methyl-1,1,4-trioxo-2,3-dihydro-1λ^6,5-benzothiazepin-7-yl]-1,3,4-oxadiazol-2-yl]-2-methyl-propanenitrile] | 96 | 2.73 | 1.06 |  | 
17 | Cc1cc2c(cc1-c1nnc(C(C)C#N)o1)N(Cc1ccc(Cl)cc1)C(=O)[C@@H](N)CS2(=O)=O (stereo partly drawn) [Example 277, 2-[5-[(3R)-3-amino-5-[(4-chlorophenyl)methyl]-8-methyl-1,1,4-trioxo-2,3-dihydro-1λ^6,5-benzothiazepin-7-yl]-1,3,4-oxadiazol-2-yl]propanenitrile] | 59 | 8.22 | 6.94 |  | 
18 | CCn1cc(-c2cc3c(cc2F)S(=O)(=O)C[C@H](N)C(=O)N3Cc2ccc(Cl)cc2)cn1 [Example 279] | 90 | 5.34 | 0.47 |  | 
19 | CCn1ccc(-c2cc3c(cc2F)S(=O)(=O)C[C@H](N)C(=O)N3Cc2ccc(Cl)cc2)n1 [Example 280, (3R)-3-amino-5-[(4-chlorophenyl)methyl]-7-(1-ethylpyrazol-3-yl)-8-fluoro-1,1-dioxo-2,3-dihydro-1λ^6,5-benzothiazepin-4-one] | 52 | 19.5 | 0.853 |  | 
20 | CN1CC(n2cc(-c3cc4c(cc3F)S(=O)(=O)C[C@H](N)C(=O)N4Cc3ccc(Cl)cc3)cn2)CC(F)(F)C1 (stereo partly drawn) [Example 281, (3R)-3-amino-5-[(4-chlorophenyl)methyl]-7-[1-(5,5-difluoro-1-methyl-3-piperidyl)pyrazol-4-yl]-8-fluoro-1,1-dioxo-2,3-dihydro-1λ^6,5-benzothiazepin-4-one] | 89 | 1.04 | > 10 |  | 
21 | CC(C)(C)c1ccn(-c2cc3c(cc2F)S(=O)(=O)C[C@H](N)C(=O)N3Cc2ccc(Cl)cc2)n1 [Example 283, (3R)-3-amino-7-(3-tert-butylpyrazol-1-yl)-5-[(4-chlorophenyl)methyl]-8-fluoro-1,1-dioxo-2,3-dihydro-1λ^6,5-benzothiazepin-4-one] | 67 | 5.49 | 1.01 |  | 
22 | CCc1cnn(-c2cc3c(cc2F)S(=O)(=O)C[C@H](N)C(=O)N3Cc2ccc(Cl)cc2)c1 [Example 284, (3R)-3-amino-5-[(4-chlorophenyl)methyl]-7-(4-ethylpyrazol-1-yl)-8-fluoro-1,1-dioxo-2,3-dihydro-1λ^6,5-benzothiazepin-4-one] | 30 | 5.49 | > 20 |  | 
23 | CCn1cnc(-c2cc3c(cc2F)S(=O)(=O)C[C@H](N)C(=O)N3Cc2ccc(Cl)cc2)n1 [Example 285, (3R)-3-amino-5-[(4-chlorophenyl)methyl]-7-(1-ethyl-1,2,4-triazol-3-yl)-8-fluoro-1,1-dioxo-2,3-dihydro-1λ^6,5-benzothiazepin-4-one] | 60 | 5.49 | 9.37 |  | 
